ChEMBL document CHEMBL5291721, “A preclinical secondary pharmacology resource illuminates target-adverse drug reaction associations of marketed drugs” (Nat Commun, 2023)

What was measured:
Cannabinoid receptor 1 = Cannabinoid receptor 1 (Homo sapiens, UniProt P21554); assay type: functional, cell-based
[1] = target: Voltage-gated inwardly rectifying potassium channel KCNH2 (Homo sapiens, UniProt Q12809); assay type: functional; settings: read-out: AC50
[2] = target: T1, Type-1 angiotensin II receptor (Homo sapiens, UniProt P30556)
T1 sequence (P30556 whole entry): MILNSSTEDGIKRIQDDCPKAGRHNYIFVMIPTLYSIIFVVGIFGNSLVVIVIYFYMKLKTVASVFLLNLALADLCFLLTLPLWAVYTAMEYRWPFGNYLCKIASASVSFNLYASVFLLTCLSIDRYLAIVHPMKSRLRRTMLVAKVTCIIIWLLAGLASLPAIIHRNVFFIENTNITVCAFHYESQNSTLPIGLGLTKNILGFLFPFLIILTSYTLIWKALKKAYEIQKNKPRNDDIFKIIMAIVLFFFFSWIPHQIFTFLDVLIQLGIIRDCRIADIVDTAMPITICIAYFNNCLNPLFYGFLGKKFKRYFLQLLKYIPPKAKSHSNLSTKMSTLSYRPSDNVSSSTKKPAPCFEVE

Adenosine receptor A1 = target: T2, Adenosine receptor A1 (Homo sapiens, UniProt P30542)
T2 sequence (P30542 whole entry): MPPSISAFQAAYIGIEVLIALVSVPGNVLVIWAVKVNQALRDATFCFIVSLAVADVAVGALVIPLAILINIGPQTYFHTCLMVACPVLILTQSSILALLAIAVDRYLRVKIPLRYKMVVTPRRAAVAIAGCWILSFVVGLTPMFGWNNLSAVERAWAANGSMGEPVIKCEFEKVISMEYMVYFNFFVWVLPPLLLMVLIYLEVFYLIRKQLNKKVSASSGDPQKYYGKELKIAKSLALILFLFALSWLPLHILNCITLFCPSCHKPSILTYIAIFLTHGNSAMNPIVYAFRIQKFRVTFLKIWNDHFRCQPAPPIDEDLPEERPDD

[3] = target: T3, Alpha-1A adrenergic receptor (Homo sapiens, UniProt P35348); assay type: functional, cell-based
T3 sequence (P35348 whole entry): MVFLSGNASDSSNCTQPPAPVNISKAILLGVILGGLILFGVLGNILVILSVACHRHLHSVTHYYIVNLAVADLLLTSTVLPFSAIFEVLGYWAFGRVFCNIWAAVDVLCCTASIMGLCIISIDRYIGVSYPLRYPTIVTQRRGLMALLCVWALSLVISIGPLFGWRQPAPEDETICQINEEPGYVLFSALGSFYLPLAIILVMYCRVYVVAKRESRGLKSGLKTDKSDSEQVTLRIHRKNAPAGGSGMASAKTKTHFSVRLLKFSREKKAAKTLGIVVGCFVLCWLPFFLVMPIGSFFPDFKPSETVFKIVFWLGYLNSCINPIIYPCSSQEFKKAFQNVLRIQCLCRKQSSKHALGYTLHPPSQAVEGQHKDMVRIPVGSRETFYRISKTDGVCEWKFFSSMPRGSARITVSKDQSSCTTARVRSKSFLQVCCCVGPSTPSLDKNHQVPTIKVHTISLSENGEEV

[4] = target: T4, Equilibrative nucleoside transporter 1 (Homo sapiens, UniProt Q99808)
T4 sequence (Q99808 whole entry): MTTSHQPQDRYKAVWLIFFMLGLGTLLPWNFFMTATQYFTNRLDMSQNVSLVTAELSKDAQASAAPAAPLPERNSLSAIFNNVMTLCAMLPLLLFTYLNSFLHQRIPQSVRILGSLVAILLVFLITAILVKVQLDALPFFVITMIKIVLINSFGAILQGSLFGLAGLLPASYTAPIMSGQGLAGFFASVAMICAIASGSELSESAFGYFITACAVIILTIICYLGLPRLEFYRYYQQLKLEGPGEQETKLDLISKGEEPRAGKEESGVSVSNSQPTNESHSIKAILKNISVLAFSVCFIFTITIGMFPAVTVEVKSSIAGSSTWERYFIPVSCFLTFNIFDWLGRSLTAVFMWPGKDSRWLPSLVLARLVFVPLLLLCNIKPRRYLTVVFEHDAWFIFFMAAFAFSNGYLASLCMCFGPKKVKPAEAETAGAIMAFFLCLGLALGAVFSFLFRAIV

[5] = target: T5, Cholecystokinin receptor type A (Homo sapiens, UniProt P32238)
T5 sequence (P32238 whole entry): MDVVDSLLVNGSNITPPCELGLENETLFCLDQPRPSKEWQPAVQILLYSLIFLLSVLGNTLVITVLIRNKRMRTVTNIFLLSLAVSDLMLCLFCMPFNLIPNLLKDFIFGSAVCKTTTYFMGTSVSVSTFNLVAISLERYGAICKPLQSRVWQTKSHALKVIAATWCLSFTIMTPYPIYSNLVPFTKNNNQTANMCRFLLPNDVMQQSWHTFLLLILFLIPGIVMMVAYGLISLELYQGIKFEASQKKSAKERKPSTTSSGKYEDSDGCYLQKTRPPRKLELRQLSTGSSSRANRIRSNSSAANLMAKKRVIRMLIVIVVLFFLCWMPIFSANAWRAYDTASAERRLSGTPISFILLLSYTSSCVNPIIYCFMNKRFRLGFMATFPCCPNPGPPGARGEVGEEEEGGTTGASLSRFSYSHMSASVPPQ

[6] = target: Beta-1 adrenergic receptor (Homo sapiens, UniProt P08588); assay type: functional
Chain of Beta-1 adrenergic receptor (P08588 whole entry): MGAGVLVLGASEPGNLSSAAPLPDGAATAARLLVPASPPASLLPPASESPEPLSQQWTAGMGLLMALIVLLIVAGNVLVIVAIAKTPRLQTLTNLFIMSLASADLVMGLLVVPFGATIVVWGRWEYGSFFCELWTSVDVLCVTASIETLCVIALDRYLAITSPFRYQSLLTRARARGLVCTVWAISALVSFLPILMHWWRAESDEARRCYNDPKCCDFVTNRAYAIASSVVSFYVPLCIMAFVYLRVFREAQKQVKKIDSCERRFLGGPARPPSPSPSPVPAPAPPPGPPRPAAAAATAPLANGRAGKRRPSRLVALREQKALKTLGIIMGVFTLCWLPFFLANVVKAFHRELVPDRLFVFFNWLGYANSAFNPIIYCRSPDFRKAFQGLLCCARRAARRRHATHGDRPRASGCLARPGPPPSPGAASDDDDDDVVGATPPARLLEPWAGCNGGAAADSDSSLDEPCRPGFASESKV

Mu-type opioid receptor = Mu-type opioid receptor (Homo sapiens, UniProt P35372)
Chain of Mu-type opioid receptor (P35372 whole entry): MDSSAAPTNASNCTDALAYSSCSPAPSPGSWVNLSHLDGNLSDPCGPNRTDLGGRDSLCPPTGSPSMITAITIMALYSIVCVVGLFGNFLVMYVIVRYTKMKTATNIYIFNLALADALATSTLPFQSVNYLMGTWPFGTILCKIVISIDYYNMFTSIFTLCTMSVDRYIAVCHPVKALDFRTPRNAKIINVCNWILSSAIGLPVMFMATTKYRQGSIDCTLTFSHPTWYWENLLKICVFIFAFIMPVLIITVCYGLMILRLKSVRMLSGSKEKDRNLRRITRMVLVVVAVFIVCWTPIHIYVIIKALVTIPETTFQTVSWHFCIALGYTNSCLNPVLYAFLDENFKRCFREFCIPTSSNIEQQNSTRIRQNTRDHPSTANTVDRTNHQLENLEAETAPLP

[7] = target: T6, Alpha-2B adrenergic receptor (Homo sapiens, UniProt P18089)
T6 sequence (P18089 whole entry): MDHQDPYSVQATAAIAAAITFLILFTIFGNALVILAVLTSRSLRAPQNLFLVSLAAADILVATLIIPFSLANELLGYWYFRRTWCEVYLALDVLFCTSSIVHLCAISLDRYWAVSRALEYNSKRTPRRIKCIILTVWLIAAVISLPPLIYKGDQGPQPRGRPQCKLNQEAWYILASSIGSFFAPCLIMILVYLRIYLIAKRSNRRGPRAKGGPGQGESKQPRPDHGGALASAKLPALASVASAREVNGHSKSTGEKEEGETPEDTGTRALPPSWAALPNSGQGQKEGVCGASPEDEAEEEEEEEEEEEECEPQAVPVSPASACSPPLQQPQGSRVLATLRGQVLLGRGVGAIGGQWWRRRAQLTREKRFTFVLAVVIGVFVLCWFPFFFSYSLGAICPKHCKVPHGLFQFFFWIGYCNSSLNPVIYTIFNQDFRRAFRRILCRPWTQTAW
Note: assay procedure not described here.

Chain of Voltage-gated inwardly rectifying potassium channel KCNH2 (Q12809 whole entry): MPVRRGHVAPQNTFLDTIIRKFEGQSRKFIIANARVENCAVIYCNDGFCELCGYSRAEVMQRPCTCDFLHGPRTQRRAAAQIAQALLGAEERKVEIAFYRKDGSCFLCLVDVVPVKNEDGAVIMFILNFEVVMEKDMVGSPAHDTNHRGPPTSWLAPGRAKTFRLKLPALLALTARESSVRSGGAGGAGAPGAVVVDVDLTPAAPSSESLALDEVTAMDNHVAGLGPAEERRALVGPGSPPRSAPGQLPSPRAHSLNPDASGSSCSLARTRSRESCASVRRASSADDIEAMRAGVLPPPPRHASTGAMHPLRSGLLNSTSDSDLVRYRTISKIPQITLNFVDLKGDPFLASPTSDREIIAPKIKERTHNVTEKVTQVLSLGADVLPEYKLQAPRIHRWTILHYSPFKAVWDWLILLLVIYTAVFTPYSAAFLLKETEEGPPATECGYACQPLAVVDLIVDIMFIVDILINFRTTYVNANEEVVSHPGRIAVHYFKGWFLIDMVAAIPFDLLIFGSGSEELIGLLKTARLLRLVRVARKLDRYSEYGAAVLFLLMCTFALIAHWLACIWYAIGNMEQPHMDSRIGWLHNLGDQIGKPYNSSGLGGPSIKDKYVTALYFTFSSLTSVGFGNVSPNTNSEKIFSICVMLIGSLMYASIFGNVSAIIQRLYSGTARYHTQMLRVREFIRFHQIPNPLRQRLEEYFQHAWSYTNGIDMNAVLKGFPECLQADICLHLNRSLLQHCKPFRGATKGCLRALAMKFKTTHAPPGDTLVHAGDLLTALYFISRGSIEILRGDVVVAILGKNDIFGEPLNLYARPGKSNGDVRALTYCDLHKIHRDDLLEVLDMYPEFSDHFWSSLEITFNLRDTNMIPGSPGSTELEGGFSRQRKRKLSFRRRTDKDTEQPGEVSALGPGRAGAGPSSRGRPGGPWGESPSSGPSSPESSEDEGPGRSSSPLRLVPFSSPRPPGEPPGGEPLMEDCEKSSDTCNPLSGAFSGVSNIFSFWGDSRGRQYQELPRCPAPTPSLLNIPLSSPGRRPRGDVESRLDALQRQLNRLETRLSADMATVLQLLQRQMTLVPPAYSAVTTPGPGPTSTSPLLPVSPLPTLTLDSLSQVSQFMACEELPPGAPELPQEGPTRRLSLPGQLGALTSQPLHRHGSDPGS
Chain of Cannabinoid receptor 1 (P21554 whole entry): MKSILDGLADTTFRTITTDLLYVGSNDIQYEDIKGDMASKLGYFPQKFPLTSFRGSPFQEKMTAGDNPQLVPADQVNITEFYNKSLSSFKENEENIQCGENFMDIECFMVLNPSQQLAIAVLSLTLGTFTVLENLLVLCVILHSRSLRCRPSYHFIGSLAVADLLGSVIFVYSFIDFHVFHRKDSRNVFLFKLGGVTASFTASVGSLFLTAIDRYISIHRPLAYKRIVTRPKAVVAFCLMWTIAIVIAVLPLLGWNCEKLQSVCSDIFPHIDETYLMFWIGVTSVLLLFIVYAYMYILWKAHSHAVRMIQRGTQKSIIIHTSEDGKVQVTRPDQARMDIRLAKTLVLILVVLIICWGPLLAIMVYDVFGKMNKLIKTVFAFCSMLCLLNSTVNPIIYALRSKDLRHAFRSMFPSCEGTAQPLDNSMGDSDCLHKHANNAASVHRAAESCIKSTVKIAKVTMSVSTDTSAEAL

SMILES	AC50 (Cannabinoid receptor 1) [µM]	AC50 [1] [µM]	AC50 [2] [µM]	AC50 (Adenosine receptor A1) [µM]	AC50 [3] [µM]	AC50 [4] [µM]	AC50 [5] [µM]	AC50 [6] [µM]	AC50 (Mu-type opioid receptor) [µM]	AC50 [7] [µM]
CCOC(=O)C1=C(C)NC(C)=C(C(=O)OC)C1c1cccc(Cl)c1Cl (stereo unspecified) [FELODIPINE]	> 30	> 30	55.3	> 30	> 30	28	> 30	> 10	> 10	
N=C(N)NC(=O)Cc1c(Cl)cccc1Cl [GUANFACINE]	> 30	> 30	> 30	> 30		> 30	> 30	> 10	> 30	
CCC(=O)[C@@]1(C)[C@H](C)C[C@H]2[C@@H]3CCC4=CC(=O)C=C[C@]4(C)[C@H]3[C@@H](O)C[C@@]21C [RIMEXOLONE]		> 30	> 10	> 10		> 10	> 10	> 10	> 30	> 10
O=C1CN=C(c2ccccc2Cl)c2cc([N+](=O)[O-])ccc2N1 [CLONAZEPAM]	> 30	> 30	> 30	> 30	> 30	> 30	> 30	> 10	> 30	
CC(NC(C)(C)C)C(=O)c1cccc(Cl)c1 (stereo unspecified) [BUPROPION]	> 30		> 30	> 30	> 30	> 30	> 30	> 10	> 10	
Cc1nnc2n1-c1ccc(Cl)cc1C(c1ccccc1)=NC2 [ALPRAZOLAM]	> 30	> 30	> 30	> 30	> 30	> 30	> 30	> 10	> 30	
Cc1cnc(Nc2ccc(OCCN3CCCC3)cc2)nc1Nc1cccc(S(=O)(=O)NC(C)(C)C)c1 [FEDRATINIB]		0.82	> 30	7.17		> 30	> 30	> 10	17	> 10
CC(C)(C)NCC(O)COc1cccc2c1CC(O)C(O)C2 (stereo unspecified) [NADOLOL]	> 30	> 30	> 10	> 10	7.7	> 10	> 10	0.102	> 30	
Nc1nc(Cl)nc2c1ncn2[C@@H]1O[C@H](CO)[C@@H](O)[C@@H]1F [CLOFARABINE]		> 30	> 30	2.3		> 30	> 30	> 30	> 30	> 30
OCC(O)COc1ccc(Cl)cc1 (stereo unspecified)		> 30	> 10	> 10		> 10	> 10	> 10	> 30	> 10
CN1CCC(=C2c3ccccc3CC(=O)c3sccc32)CC1 [KETOTIFEN]	> 30	1.5	> 10	> 10	15	> 10	> 10		> 30	
O=C(O[C@H]1C[N+]2(CCCOc3ccccc3)CCC1CC2)C(O)(c1cccs1)c1cccs1 [ACLIDINIUM BROMIDE]		0.43	> 30	> 30		> 30	> 30	> 10	> 30	> 10
CC1Cc2ccccc2N1NC(=O)c1ccc(Cl)c(S(N)(=O)=O)c1 (stereo unspecified) [INDAPAMIDE]	> 30	> 30	> 30	> 30	> 30	> 30	> 30	> 10	> 30	
CN1C2CCCC1CC(NC(=O)c1nn(C)c3ccccc13)C2 (stereo unspecified) [GRANISETRON]	> 30		> 30	> 30	> 30	> 30	> 30	> 10	> 10	
CC(C)CN(C[C@@H](O)[C@H](Cc1ccccc1)NC(=O)O[C@H]1CCOC1)S(=O)(=O)c1ccc(N)cc1	> 30	> 30	> 10	> 30	12	> 10	> 30	> 10	> 30	
CC(=O)[C@@]1(O)CC[C@H]2[C@@H]3C[C@H](C)C4=CC(=O)C=C[C@]4(C)[C@@]3(F)[C@@H](O)C[C@@]21C [FLUOROMETHOLONE]	> 30	> 30	> 10	> 10	> 30	> 10	> 10	> 10	> 30	
Nc1cc(N2CCCCC2)nc(N)[n+]1[O-] [MINOXIDIL]			> 30	> 30	> 30		> 30	> 30	> 30	
CCN(C(C)=O)c1cccc(-c2ccnc3c(C#N)cnn23)c1 [ZALEPLON]	> 30	> 30	> 30	> 30	> 30	> 30	> 30	> 30	> 30	
CCC(NC(C)C)C(O)c1ccc(O)c(O)c1 (stereo unspecified) [ISOETHARINE]		> 30	> 30	> 30		> 30	> 30		> 30	> 30
CC1=C(CC(=O)O)c2cc(F)ccc2/C1=C\c1ccc([S+](C)[O-])cc1 (stereo unspecified)	> 30	> 30	> 30	> 30	> 30	> 30	> 30	> 10	> 30	
